Source: US8921555B2, “Substituted-1,3,8-triazaspiro[4.5]decane-2,4-diones” (Merck Sharp & Dohme Corp., priority 2009, dated 2014)
Read-outs that look alike come from different tables or passages of the source.

Assays:
Assay type in all cases: biochemical
[1] = target: T1, HIF-PHD2 (Homo sapiens, UniProt Q9GZT9); assay: Assay for HIF-PHD2 Catalytic Activity (PHD2 Binding Activity)
T1 construct: FLAG-tagged full length PHD2 expressed in and purified from baculovirus-infected Sf9 cells; FLAG; made in house; host or cells: baculovirus-infected Sf9 cells

[2] = target: HIF-PHD1 (Homo sapiens, UniProt Q96KS0); assay: Inhibition of the catalytic activity of HIF-PHD1; settings: comparison compounds of WO 2008/030412; read-out: IC50 (nM) HIF-PHD-1
Protocol: (§1) To each well of a 96-well plate was added 1 μL of test compound in DMSO and 20 μL of assay buffer (50 mM Tris pH 7.4/0.01% Tween-20/0.1 mg/ml bovine serum albumin/10 μM ferrous sulfate/1 mM sodium ascorbate/20 μg/ml catalase) containing 0.15 μg/ml FLAG-tagged full length PHD2 expressed in and purified from baculovirus-infected Sf9 cells. After a […] at room temperature, the enzymatic reactions were initiated by the addition of 4 μL of substrates (final concentrations of 0.2 μM 2-oxoglutarate and 0.5 μM HIF-1α peptide biotinyl-[…]). After 2 hr at room temperature, the reactions were terminated and signals were developed by the addition of a 25 μL quench/detection mix to a final concentration of 1 mM ortho-phenanthroline, 0.1 mM EDTA, 0.5 nM anti-(His)6 LANCE reagent (Perkin-Elmer Life Sciences), 100 nM AF647-labeled streptavidin (Invitrogen), and 2 μg/ml (His)6-VHL complex (S. Tan(2001) Protein Expr. Purif. 21, 224-234). The ratio of time resolved fluorescence signals at 665 and 620 nm was determined, and percent inhibition was calculated relative to an uninhibited control sample run in parallel.
(§2) Inhibition of the catalytic activity of HIF-PHD1 and HIF-PHD3 can be determined similarly.

[3] = target: HIF-PHD3 (Homo sapiens, UniProt Q9H6Z9); assay: Inhibition of the catalytic activity of HIF-PHD3; settings: comparison compounds of WO 2008/030412; read-out: IC50 (nM) HIF-PHD-3
Protocol: as §1, §2

[4] = read-out: PHD2 Binding Activity IC50

T1 sequence (Q9GZT9 whole entry): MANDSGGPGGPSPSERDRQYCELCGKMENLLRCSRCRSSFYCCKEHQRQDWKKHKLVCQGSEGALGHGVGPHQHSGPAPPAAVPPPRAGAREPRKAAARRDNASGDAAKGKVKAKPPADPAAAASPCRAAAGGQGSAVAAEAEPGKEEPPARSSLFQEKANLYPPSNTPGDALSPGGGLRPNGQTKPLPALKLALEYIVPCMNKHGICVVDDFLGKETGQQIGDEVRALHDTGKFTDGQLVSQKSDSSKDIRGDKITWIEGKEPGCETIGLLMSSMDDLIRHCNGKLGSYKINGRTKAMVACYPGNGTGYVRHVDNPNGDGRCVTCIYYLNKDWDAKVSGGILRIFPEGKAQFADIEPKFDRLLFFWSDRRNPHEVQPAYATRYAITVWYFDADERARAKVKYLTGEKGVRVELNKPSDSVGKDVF
Chain of HIF-PHD3 (Q9H6Z9 whole entry): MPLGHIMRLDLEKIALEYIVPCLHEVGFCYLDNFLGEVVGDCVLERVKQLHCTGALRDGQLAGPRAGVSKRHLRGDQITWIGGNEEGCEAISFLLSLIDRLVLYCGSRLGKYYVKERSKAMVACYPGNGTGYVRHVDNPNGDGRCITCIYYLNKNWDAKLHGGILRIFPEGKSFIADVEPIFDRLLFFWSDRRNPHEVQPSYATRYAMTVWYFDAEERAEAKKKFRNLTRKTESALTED
Chain of HIF-PHD1 (Q96KS0 whole entry): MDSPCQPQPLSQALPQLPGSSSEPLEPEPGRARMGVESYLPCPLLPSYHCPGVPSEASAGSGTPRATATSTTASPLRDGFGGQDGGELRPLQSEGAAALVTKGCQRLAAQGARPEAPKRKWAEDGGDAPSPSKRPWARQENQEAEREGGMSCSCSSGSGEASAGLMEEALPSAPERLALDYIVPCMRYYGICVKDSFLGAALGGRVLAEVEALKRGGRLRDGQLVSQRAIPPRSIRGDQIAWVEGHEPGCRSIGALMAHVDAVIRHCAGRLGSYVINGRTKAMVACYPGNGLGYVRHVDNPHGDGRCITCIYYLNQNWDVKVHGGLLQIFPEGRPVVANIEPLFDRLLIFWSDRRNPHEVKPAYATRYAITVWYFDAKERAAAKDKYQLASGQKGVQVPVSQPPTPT

SMILES | IC50 [1] [nM] | IC50 [1, 4] [nM] | other results
Cc1cccnc1CN1CCC2(C(=O)N(c3ccc(-c4ccccc4)cc3)C(=O)N2c2cc(O)ncn2)C(C(=O)O)C1 (stereo not drawn) [Compound 3-7, 3-biphenyl-4-yl-1-(6-hydroxypyrimidin-4-yl)-8-[(3-methylpyridin-2-yl)methyl]-2,4-dioxo-1,3,8-triazaspiro[4.5]decane-6-carboxylic acid] | 0.5 to 20 | – | –
Cc1cccnc1CN1CCC2(C(=O)N(c3ccc(-c4ccccc4)cc3)C(=O)N2c2ncccn2)C(C(=O)O)C1 (stereo not drawn) [Compound 3-8, 3-biphenyl-4-yl-8-[(3-methylpyridin-2-yl)methyl]-2,4-dioxo-1-pyrimidin-2-yl-1,3,8-triazaspiro[4.5]decane-6-carboxylic acid] | 0.5 to 20 | – | –
CCOC(=O)C1CN(Cc2ncccc2C)CCC12C(=O)N(c1ccc(-c3ccccc3)cc1)C(=O)N2c1cc(OC)ncn1 (stereo not drawn) [Compound 3-9, Ethyl 3-biphenyl-4-yl-1-(6-methoxypyrimidin-4-yl)-8-[(3-methylpyridin-2-yl)methyl]-2,4-dioxo-1,3,8-triazaspiro[4.5]decane-6-carboxylate] | 0.5 to 20 | – | –
O=C(O)CN1CCC2(CC1)NC(=O)N(c1ccc(-c3ccccc3)cc1)C2=O [Compound 4-1, (3-biphenyl-4-yl-2,4-dioxo-1,3,8-triazaspiro[4.5]dec-8-yl)acetic acid] | – | > 50 | –
Cc1cccnc1CN1CCC2(CC1)C(=O)N(c1ccc(-c3ccccc3)cc1)C(=O)N2C(=O)NC(C)(C)C(=O)O [Compound 5-3, 2-[({3-biphenyl-4-yl-8-[(3-methylpyridin-2-yl)methyl]-2,4-dioxo-1,3,8-triazaspiro[4.5]dec-1-yl}carbonyl)amino]-2-methylpropanoic acid] | – | 0.5 to 20 | –
Cc1cccnc1CN1CCC2(CC1)C(=O)N(c1ccc(-c3ccccc3)cc1)C(=O)N2C(=O)N[C@H](C)C(=O)O [Compound 5-4, (2R)-2-[({3-biphenyl-4-yl-8-[(3-methylpyridin-2-yl)methyl]-2,4-dioxo-1,3,8-triazaspiro[4.5]dec-1-yl}carbonyl)amino]propanoic acid] | – | 0.5 to 20 | –
Cc1cccnc1CN1CCC2(CC1)C(=O)N(c1ccc(-c3ccccc3)cc1)C(=O)N2C(=O)N[C@@H](C)C(=O)O [Compound 5-5, (2S)-2-[({3-biphenyl-4-yl-8-[(3-methylpyridin-2-yl)methyl]-2,4-dioxo-1,3,8-triazaspiro[4.5]dec-1-yl}carbonyl)amino]propanoic acid] | – | 0.5 to 20 | –
Cc1cccnc1CN1CCC2(CC1)C(=O)N(c1ccc(-c3ccccc3)cc1)C(=O)N2C(=O)N[C@@H](CO)C(=O)O [Compound 5-6, N-({3-biphenyl-4-yl-8-[(3-methylpyridin-2-yl)methyl]-2,4-dioxo-1,3,8-triazaspiro[4.5]dec-1-yl}carbonyl)-L-serine] | – | 0.5 to 20 | –
Cc1cccnc1CN1CCC2(CC1)C(=O)N(c1ccc(-c3ccccc3)cc1)C(=O)N2C(=O)CCC(=O)O [Compound 5-7, 4-{3-biphenyl-4-yl-8-[(3-methylpyridin-2-yl)methyl]-2,4-dioxo-1,3,8-triazaspiro[4.5]dec-1-yl}-4-oxobutanoic acid] | – | 0.5 to 20 | –
Cc1cncc(N2C(=O)N(c3ccc(-c4ccc(C(=O)O)cc4C)cc3)C(=O)C23CCN(Cc2ncccc2C)CC3)n1 [Compound 7-6, 2-methyl-4′-{1-(6-methylpyrazin-2-yl)-8-[(3-methylpyridin-2-yl)methyl]-2,4-dioxo-1,3,8-triazaspiro[4.5]dec-3-yl}biphenyl-4-carboxylic acid] | 0.5 to 20 | – | –
Cc1cncc(N2C(=O)N(c3ccc(-c4ccc(C(=O)O)cc4)cc3)C(=O)C23CCN(Cc2ncccc2C)CC3)n1 [Compound 7-7, 4′-{1-(6-methylpyrazin-2-yl)-8-[(3-methylpyridin-2-yl)methyl]-2,4-dioxo-1,3,8-triazaspiro[4.5]dec-3-yl}biphenyl-4-carboxylic acid] | 0.5 to 20 | – | –
Cc1cc(N2C(=O)N(c3ccc(-c4ccc(C(=O)O)cc4)cc3)C(=O)C23CCN(Cc2ncccc2C)CC3)ncn1 [Compound 7-9, 4′-[8-[(3-methylpyridin-2-yl)methyl]-1-(6-methylpyrimidin-4-yl)-2,4-dioxo-1,3,8-triazaspiro[4.5]dec-3-yl]biphenyl-4-carboxylic acid] | 0.5 to 20 | – | –
COc1cc(N2C(=O)N(c3ccc(-c4ccc(C5CC(=O)NN5)cc4)cc3)C(=O)C23CCN(Cc2ncccc2C)CC3)ncn1 (stereo not drawn) [Compound 7-13, 1-(6-methoxypyrimidin-4-yl)-8-[(3-methylpyridin-2-yl)methyl]-3-[4′-(5-oxopyrazolidin-3-yl)biphenyl-4-yl]-1,3,8-triazaspiro[4.5] decane-2,4-dione] | 0.5 to 20 | – | –
Cc1cccnc1CN1CCC2(CC1)C(=O)N(c1ccc(Br)cc1)C(=O)N2c1cc(-c2ccc(C(=O)O)cc2)ncn1 [Compound 7-15, 4-(6-{3-(4-bromophenyl)-8-[(3-methylpyridin-2-yl)methyl]-2,4-dioxo-1,3,8-triazaspiro[4.5]dec-1-yl}pyrimidin-4-yl)benzoic acid] | 0.5 to 20 | – | –
COC(=O)c1ccc(-c2ccc(N3C(=O)N(c4ccncn4)C4(CCN(Cc5ncccc5C)CC4)C3=O)cc2)c(C)c1 [Compound 8-2, methyl 2-methyl-4′-{8-[(3-methylpyridin-2-yl)methyl]-2,4-dioxo-1-pyrimidin-4-yl-1,3,8-triazaspiro[4.5]dec-3-yl}biphenyl-4-carboxylate] | 0.5 to 20 | – | –
Cc1cc(C(=O)O)ccc1-c1ccc(N2C(=O)N(c3cccnn3)C3(CCN(Cc4ncccc4C)CC3)C2=O)cc1 [Compound 9-2, 2-methyl-4′-{8-[(3-methylpyridin-2-yl)methyl]-2,4-dioxo-1-pyridazin-3-yl-1,3,8-triazaspiro[4.5]dec-3-yl}biphenyl-4-carboxylic acid] | 0.5 to 20 | – | –
COc1ccnc(CN2CCC3(CC2)C(=O)N(c2ccc(-c4ccc(C(=O)O)cc4)nc2)C(=O)N3c2cc(OC)ncn2)c1 [Compound 10-3, 4-(5-{8-[(4-methoxypyridin-2-yl)methyl]-1-(6-methoxypyrimidin-4-yl)-2,4-dioxo-1,3,8-triazaspiro[4.5]dec-3-yl}-pyridin-2-yl) benzoic acid] | 0.5 to 20 | – | –
COc1cc(N2C(=O)N(c3ccc(-c4ccc(C(=O)O)cc4)nc3)C(=O)C23CCN(Cc2cc(O)ccn2)CC3)ncn1 [Compound 10-4, 4-(5-{8-[(4-hydroxypyridin-2-yl)methyl]-1-(6-methoxypyrimidin-4-yl)-2,4-dioxo-1,3,8-triazaspiro[4.5]dec-3-yl}-pyridin-2-yl) benzoic acid] | 0.5 to 20 | – | –
COc1ccnc(N2C(=O)N(c3ccc(-c4ccc(C(=O)O)cc4C)nc3)C(=O)C23CCN(Cc2ncccc2C)CC3)n1 [Compound 11-2, 4-(5-{1-(4-methoxypyrimidin-2-yl)-8-[(3-methylpyridin-2-yl)methyl]-2,4-dioxo-1,3,8-triazaspiro[4.5]dec-3-yl}-pyridin-2-yl)-3-methylbenzoic acid] | 0.5 to 20 | – | –
Cc1cc(C(=O)O)ccc1-c1ccc(N2C(=O)N(CC(F)(F)F)C3(CCN(Cc4ncccc4C)CC3)C2=O)cn1 [Compound 11-3, 3-methyl-4-(5-{8-[(3-methylpyridin-2-yl)methyl]-2,4-dioxo-1-(2,2,2-trifluoroethyl)-1,3,8-triazaspiro[4.5]dec-3-yl}-pyridin-2-yl) benzoic acid] | – | 0.5 to 20 | –
COc1cc(N2C(=O)N(c3ccc(-c4ccc(C(=O)O)cc4F)nc3)C(=O)C23CCN(Cc2ncccc2C)CC3)ncn1 [Compound 12-1, 3-fluoro-4-(5-{1-(6-methoxypyrimidine-4-yl)-8-[(3-methylpyridin-2-yl)methyl]-2,4-dioxo-1,3,8-triazaspiro[4.5]dec-3-yl}pyridin-2-yl)-3-benzoic acid] | 0.5 to 20 | – | –
CC(C)Oc1cccc(CN2CC[C@@]3(C[C@@H]2C)C(=O)N(c2ccccc2)C(=O)N3c2cccc(F)c2)c1 [Egbertson's Example 31] | > 10000 | – | IC50 [2]: > 10000 nM; IC50 [3]: > 10000 nM
